Assay results taken from US20260334439A1, “BCAT2 INHIBITORS” (Agios Pharmaceuticals, Inc., priority 2023, published 2026).

Legend:
[1] = target: T1, BCAT2 (Homo sapiens, UniProt O15382); assay: BCAT2 cell inhibition using engineered A549 cells (MUT KO, BCAT1 KO; 13C6-KMV formation by LC-MS/MS); assay type: cell-based; design: expressed endogenous BCAT2; endogenous in cells; host or cells: A549 cells, MUT knockout and BCAT1 knockout
T1 sequence (O15382 28-392): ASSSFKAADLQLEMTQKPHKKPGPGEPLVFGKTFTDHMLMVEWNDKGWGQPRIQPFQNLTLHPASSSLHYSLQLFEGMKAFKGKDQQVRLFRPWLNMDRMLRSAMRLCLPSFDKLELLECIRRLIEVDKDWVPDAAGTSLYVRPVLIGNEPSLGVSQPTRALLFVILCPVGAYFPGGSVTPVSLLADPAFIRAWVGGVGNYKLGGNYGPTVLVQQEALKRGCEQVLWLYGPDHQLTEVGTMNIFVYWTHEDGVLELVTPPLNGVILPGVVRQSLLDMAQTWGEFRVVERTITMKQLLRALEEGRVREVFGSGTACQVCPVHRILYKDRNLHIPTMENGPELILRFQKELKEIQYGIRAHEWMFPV
Text: Endogenous Methylmalonyl-CoA Mutase (MUT) and Branched Chain Aminotransferase 1 (BCAT1) in A549 cells was knocked out by CRISPR/CAS9 using the targeting system from TransOMIC Technologies. The following guide sequence was cloned into pCLIP-ALL-EFS-Blast vector to target human MUT: […] (SEQ ID NO: 35). The following guide sequence was cloned into pCLIP-ALL-EFS-Puro vector to target human BCAT1: […] (SEQ ID NO: 36). The resulting plasmids were co-transfected into 293T cells with VSV-G, P-PEX, and Fugene-6. Lentivirus was harvested and A549 cells were first transduced with lentivirus targeting MUT and polybrene. After genetic selection with blasticidin clonal selection was performed and validated via western blot analysis to confirm MUT was no longer expressed. These MUT KO cells were then transduced with lentivirus targeting BCAT1 and polybrene. After selection with puromycin clonal selection was performed and clones were validated via western blot analysis to confirm BCAT1 was no longer expressed in these cells. The result was an engineered A549 cell line that expressed endogenous BCAT2.
For KMV cell assays, on day 1, 25,000 cells/100 μL EMEM (10% FBS) were seeded in each well of a 96-well plate. On day 2, medium was replaced with 50 μL fresh EMEM (10% dialyzed FBS) containing 2× the assay concentration of experimental compound. After 15 minutes, 50 μL of 800 uM ^15N,^13C6-Isoleucine in EMEM (10% dialyzed FBS) was added to each well and incubated for 24 hours. On day 3, 50 μL of media from each well was collected and transferred to another 96-well plate for ^13C6-3-Methyl-2-Oxopentanoic Acid (KMV) analysis via LC-MS/MS. In the remaining assay wells 50 μL of Promega Glo CTG reagent was added and luminescence was measured as a cell viability readout.
For LC-MS/MS analysis 5 μL of cell assay media from each well was transferred to a 96-well plate and 45 μL of ACN:0.1% NaOH (50:50, v/v)^+0.20 nM d8-KMV was added and mixed on a shaker. 15 μL was transferred to a new 96-well plate and 15 μL of 10 mg/mL PFBHA solution was added and mixed on the shaker. The reaction was placed on ice for 30 minutes and quenched with 10 μL of ACN: Acetone (50:50, v/v) on a shaker. The resulting mixture was diluted with 100 μL of ACN:0.1% NaOH (50:50, v/v) on a shaker. 10 μL of sample were injected on the Shimadzu 20AD LC-MS/MS to quantify ^13C6-KMV.
Where a compound was tested multiple times, the average value of the tests is reported.

[2] = target: T1, BCAT2; assay: BCAT2 in vitro enzyme inhibition assay (hBCAT2, glutamate dehydrogenase/diaphorase/resazurin coupled fluorescence read); assay type: biochemical; settings: hBCAT2, 1 h preincubation at 25° C., one hour reaction; average where tested multiple times
Procedure, shortened: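 hBCAT2 (0.33 μg/mL in mix) preincubated 1 h at 25 °C with compound (top 100 μM, 3-fold, 10 points) in Tris pH 8.0/NaCl/BSA; substrate mix added (L-leucine, α-ketoglutarate, GDH, NAD, diaphorase, resazurin), quenched with SDS after 1 h, fluorescence Ex 540/Em 590; duplicates, repeat tests averaged.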

[3] = read-out: BCAT2 Cell Inhibition (IC50), engineered A549 cells, 24 hours, 13C6-KMV in media, average where tested multiple times

Row | SMILES | IC50 ([1]; engineered A549 cells, 24 hours, 13C6-KMV in media, average where tested multiple times, read-out: BCAT2 Cell Inhibition (IC50)) [nM] | IC50 [2] [nM] | IC50 [1, 3] [nM] | IC50 [1] [nM]
1 | CN1C[C@H](NC(=O)c2cc(Cl)ccn2)C[C@H](n2c(-c3ncccc3F)nc3cnc(-c4nc[nH]n4)cc32)C1 [Example 132, 4-chloro-N-((3R,5S)-5-(2-(3-fluoropyridin-2-yl)-6-(1H-1,2,4-triazol-3-yl)-1H-imidazo[4,5-c]pyridin-1-yl)-1-methylpiperidin-3-yl)picolinamide] | – | < 100 | > 1000 | –
2 | O=C(N[C@H]1CCC[C@@H](n2c(-c3ncccc3F)nc3cnc(-c4nc[nH]n4)cc32)C1)c1cc(Cl)ccn1 [Example 15, 4-chloro-N-((1S,3R)-3-(2-(3-fluoropyridin-2-yl)-6-(1H-1,2,4-triazol-3-yl)-1H-imidazo[4,5-c]pyridin-1-yl)cyclohexyl)picolinamide] | – | < 100 | – | < 100
3 | O=C(N[C@H]1CCC[C@@H](n2c(-c3ccccc3OCCO)nc3cnc(-c4nc[nH]n4)cc32)C1)c1cc(Cl)ccc1F [Example 86, 5-chloro-2-fluoro-N-((1S,3R)-3-(2-(2-(2-hydroxyethoxy)phenyl)-6-(1H-1,2,4-triazol-3-yl)-1H-imidazo[4,5-c]pyridin-1-yl)cyclohexyl)benzamide] | – | < 100 | – | 100 to 500
4 | O=C(N[C@H]1CCC[C@@H](n2c(-c3ncccc3F)nc3cnc(-c4nc[nH]n4)cc32)C1)c1cc(F)ccn1 [Example 16, 4-fluoro-N-((1S,3R)-3-(2-(3-fluoropyridin-2-yl)-6-(1H-1,2,4-triazol-3-yl)-1H-imidazo[4,5-c]pyridin-1-yl)cyclohexyl)picolinamide] | – | < 100 | – | 100 to 500
5 | O=C(N[C@H]1CCC[C@@H](n2c(-c3ccccc3F)nc3cnc(-c4nc[nH]n4)cc32)C1)c1ccc(F)cn1 [Example 19, 5-fluoro-N-((1S,3R)-3-(2-(2-fluorophenyl)-6-(1H-1,2,4-triazol-3-yl)-1H-imidazo[4,5-c]pyridin-1-yl)cyclohexyl)picolinamide] | – | < 100 | – | 100 to 500
6 | COc1ccc(Cl)cc1C(=O)N[C@H]1CCCC[C@@H](n2c(-c3ccccc3F)nc3cnc(-c4nc[nH]n4)cc32)[C@@H]1O [Example 105, 5-chloro-N-((1S,2R,3R)-3-(2-(2-fluorophenyl)-6-(1H-1,2,4-triazol-3-yl)-1H-imidazo[4,5-c]pyridin-1-yl)-2-hydroxycycloheptyl)-2-methoxybenzamide] | – | < 100 | – | < 100
7 | CO[C@H]1C[C@H](NC(=O)c2cc(F)ccn2)C[C@H](n2c(-c3ccccc3F)nc3cnc(-c4nc[nH]n4)cc32)C1 [Example 113, 4-fluoro-N-((1R,3S,5S)-3-(2-(2-fluorophenyl)-6-(1H-1,2,4-triazol-3-yl)-1H-imidazo[4,5-c]pyridin-1-yl)-5-methoxycyclohexyl)picolinamide] | – | < 100 | – | < 100
8 | CN(C)Cc1ccc(Cl)cc1C(=O)N[C@H]1CCC[C@@H](n2c(-c3ccccc3F)nc3cnc(-c4nc[nH]n4)cc32)C1 [Example 37, 5-chloro-2-((dimethylamino)methyl)-N-((1S,3R)-3-(2-(2-fluorophenyl)-6-(1H-1,2,4-triazol-3-yl)-1H-imidazo[4,5-c]pyridin-1-yl)cyclohexyl)benzamide] | – | < 100 | – | 500 to 1000
9 | O=C(N[C@H]1CCC[C@@H](n2c(-c3ccccc3F)nc3cnc(-c4nc[nH]n4)cc32)C1)c1ncccc1Cl [Example 10, 3-chloro-N-((1S,3R)-3-(2-(2-fluorophenyl)-6-(1H-1,2,4-triazol-3-yl)-1H-imidazo[4,5-c]pyridin-1-yl)cyclohexyl)picolinamide] | – | < 100 | – | 500 to 1000
10 | CN1C[C@@H](NC(=O)c2cc(Cl)ccn2)C[C@@H](n2c(-c3ccccc3F)nc3cnc(-c4nc[nH]n4)cc32)C1 [Example 129, 4-chloro-N-((3S,5R)-5-(2-(2-fluorophenyl)-6-(1H-1,2,4-triazol-3-yl)-1H-imidazo[4,5-c]pyridin-1-yl)-1-methylpiperidin-3-yl)picolinamide] | – | 100 to 500 | > 1000 | –

The remaining lines, values ahead:

Row | IC50 ([1]; engineered A549 cells, 24 hours, 13C6-KMV in media, average where tested multiple times, read-out: BCAT2 Cell Inhibition (IC50)) [nM] | IC50 [2] [nM] | IC50 [1, 3] [nM] | IC50 [1] [nM] | SMILES
11 | 100 to 500 | < 100 | – | – | O=C(N[C@@H]1C[C@@H](OC(F)F)C[C@H](n2c(-c3ccccc3F)nc3cnc(-c4ncn[nH]4)cc32)C1)c1cc(F)ccn1 (relative stereo) [compound 128]
12 | – | < 100 | – | < 100 | O=C1c2c(ccc(F)c2F)CN1[C@H]1CCC[C@@H](n2c(-c3ccccc3F)nc3cnc(-c4nc[nH]n4)cc32)C1 [Example 178, 6,7-difluoro-2-((1S,3R)-3-(2-(2-fluorophenyl)-6-(1H-1,2,4-triazol-3-yl)-1H-imidazo[4,5-c]pyridin-1-yl)cyclohexyl)isoindolin-1-one]
13 | – | < 100 | – | < 100 | N#Cc1ccccc1-c1nc2cnc(-c3nc[nH]n3)cc2n1[C@@H]1CCC[C@H](N2Cc3ccc(F)cc3C2=O)C1 [Example 171, 2-(1-((1R,3S)-3-(6-fluoro-1-oxoisoindolin-2-yl)cyclohexyl)-6-(1H-1,2,4-triazol-3-yl)-1H-imidazo[4,5-c]pyridin-2-yl)benzonitrile]
14 | – | < 100 | – | < 100 | N#Cc1ccccc1-c1nc2ccc(-c3ncccn3)cc2n1[C@@H]1CCC[C@H](N2Cc3ccc(F)cc3C2=O)C1 [Example 239, 2-(1-((1R,3S)-3-(6-fluoro-1-oxoisoindolin-2-yl)cyclohexyl)-6-(pyrimidin-2-yl)-1H-benzo[d]imidazol-2-yl)benzonitrile]
15 | – | < 100 | – | 100 to 500 | O=C1c2cccc(F)c2CN1[C@H]1CCC[C@@H](n2c(-c3ccccc3F)nc3cnc(-c4nc[nH]n4)cc32)C1 [Example 177, 4-fluoro-2-((1S,3R)-3-(2-(2-fluorophenyl)-6-(1H-1,2,4-triazol-3-yl)-1H-imidazo[4,5-c]pyridin-1-yl)cyclohexyl)isoindolin-1-one]
16 | – | < 100 | – | 100 to 500 | O=C1c2cc(F)ccc2CN1[C@H]1CCC[C@@H](n2c(-c3c(F)cccc3OC(F)F)nc3ccc(-c4nc[nH]n4)cc32)[C@@H]1O [compound 240]
17 | – | < 100 | – | < 100 | O=C1c2cc(F)ccc2CN1[C@H]1CCC[C@@H](n2c(-c3ccccc3F)nc3cnc(-c4nc[nH]n4)cc32)[C@@H]1O [Example 184, 6-fluoro-2-((1S,2S,3R)-3-(2-(2-fluorophenyl)-6-(1H-1,2,4-triazol-3-yl)-1H-imidazo[4,5-c]pyridin-1-yl)-2-hydroxycyclohexyl)isoindolin-1-one]
18 | – | < 100 | > 1000 | – | COc1ccc(Cl)cc1C(=O)N[C@H]1CCC[C@@H](n2c(-c3ccccc3F)nc3ccc(-c4nc[nH]n4)cc32)[C@@H]1O [Example 217, 5-chloro-N-((1S,2R,3R)-3-(2-(2-fluorophenyl)-6-(1H-1,2,4-triazol-3-yl)-1H-benzo[d]imidazol-1-yl)-2-hydroxycyclo-hexyl)-2-methoxybenzamide]
19 | – | < 100 | – | < 100 | O=C1c2cc(Cl)ccc2NCN1[C@H]1CCC[C@@H](n2c(-c3ccccc3F)nc3cnc(-c4nc[nH]n4)cc32)C1 [Example 206, 6-chloro-3-((1S,3R)-3-(2-(2-fluorophenyl)-6-(1H-1,2,4-triazol-3-yl)-1H-imidazo[4,5-c]pyridin-1-yl)cyclohexyl)-2,3-dihydroquinazolin-4(1H)-one]
20 | – | < 100 | – | 100 to 500 | O=C1c2cc(F)ccc2CN1[C@H]1CCC[C@@H](n2c(-c3ccccc3OC(F)F)nc3cnc(-c4nc[nH]n4)cc32)[C@@H]1O [compound 188]
